The text below walks through data of patent publication US9526766B2, “Potentiation of antibiotic treatment with a protein-lipid complex” (priority 2012, dated 2016).

Assay [1] deals with NRS 384 Staphylococci. Kind of assay: Intracellular pH measurement (BCECF-AM). The settings on record: ALAFAC 100 μg/mL (6 μM), RuR 30 μM, Amiloride 1 mM. The class given is cell-based, Staphylococcus aureus. From the text: Intracellular pH measurement. A reported protocol for intracellular pH (pHi) measurement was modified and optimized for S. aureus by testing the effect of various dye concentrations and staining times on the measured fluorescence of S. aureus isolate NRS 384 grown to mid-log phase. Cell samples were subjected to increasing concentrations of the membrane-permeant acetoxymehtyl (AM) ester derivative of the dual-excitation ratiometric pH indicator dye BCECF (2′,7′-bis-(2-carboxyethyl)-5-(and-6)-carboxyfluorescein), for 30 minutes at 30° C. Fluorescence was measured as a ratio of fluorescence at 530 nm with dual wavelength excitation at 490 and 440 nm and calibration curves were established for each independent experiment. After testing a number of loading concentrations we observed that the fluorescence ratios remains generally constant when concentrations above 20 μM was used. Therefore 25 μM BCECF-AM was used for all experiments. The optimized staining time, 30 minutes, was determined using the same criteria and was used for all experiments. After loading, the cells were washed twice in PBS by centrifugation and the resulting pellet was resuspended in PBS to the original volume and ALAFAC and ALAFAC/antibiotic combinations were added. CCCP was added as a positive control. CCCP is a lipophilic weak acid that is soluble in the lipid domain of the membrane in both the protonated and deprotonated form. This allows it to act as a protonophore causing an influx of H^+ into the cytoplasm, dissipating both the electrical potential and the H^+ gradient across the inner membrane. For each experiment calibration was performed where cells were resuspended in high [K^+] buffers at different pH values ranging from 6.5 to 8.0.

Assay [2] concerns Staphylococcus aureus. The assay is described as follows: MIC by broth microdilution, antibiotics with and without ALAFAC. Format: cell-based. The settings on record: NRS 123; methicillin + ALAFAC; Ruthenium Red 30 μM, Amiloride 1 mM. As to the method: Methodology: Minimal inhibitory concentrations (MICs) were determined in 96-well microtiter plates using the microdilution method according to approved standards of the CLSI except that Todd-Hewitt medium supplemented with 0.5% yeast extract, which yields reproducible MIC results was used as the test medium for S. pneumoniae. For the remaining species Mueller-Hinton medium was used as indicated by the CLSI standard. Each well contained two-fold dilutions of antibiotic, was seeded with a final bacterial concentration of 10^5 CFU/mL, and was incubated for 18 h at 37° C. in a Synergy II microplate reader (Biotek, Winooski, Vt.) where the OD600 was recorded every 5 minutes to monitor bacterial growth. The MIC was defined as the lowest concentration of antimicrobial agent solution at which no increase in OD600 was detected.
In vitro susceptibility tests. Minimal inhibitory concentrations (MICs) were determined in 96-well microtiter plates using the microdilution method according to approved standards of the CLSI as described previously. However, rather than Mueller-Hinton broth, Tryptic soy broth (TSB) was used for susceptibility testing as it is the common media used for Staphylococcal growth, and as it has shown more consistent results for a variety of antimicrobials when tested against Staphylococci. […] A two-fold dilution series of antibiotics in triplicate and in the presence or absence of ALAFAC was prepared in 96 well microtiter plates, and each well was seeded with a final bacterial concentration of 10^5 CFU/mL, and was incubated for 24 h at 37° C. in a Synergy 2 microplate reader (Biotek, Winooski, Vt.) where the Optical Density at 600 nm (OD600) was recorded every 5 minutes to monitor bacterial growth. The MIC was defined as the lowest concentration of antimicrobial agent solution where no increase in OD600 was detected.

Assay [3] concerns NRS 123 Staphylococci. The assay is described as follows: Membrane potential, DiBAC4(3) fluorescence. The class given is cell-based, Staphylococcus aureus. The note with it: Ruthenium Red, Amiloride. As to the method: Assessing membrane potential. Staphylococci grown to late log phase in TSB were pelleted by centrifugation at 2,400×g for 10 minutes and washed twice by resuspension in PBS. The bacterial pellet was resuspended in PBS to half of the original volume and energized with 50 mM glucose for 15 minutes at 37° C. To measure membrane potential of the staphylococcal membrane, 500 nM DiBAC4(3) (bis-(1,3-dibutylbarbituric acid) trimethine oxonol; Molecular Probes, Eugene, Oreg., USA) were added. […] The plate was then placed immediately into a pre-warmed (37° C.) Synergy 2 Multi-Mode Microplate Reader (BioTek) where fluorescence readings from DiBAC4(3) (485/20 nm excitation, 528/20 nm emission) were taken every minute for one hour. The difference in fluorescence intensity between the untreated control and the ALAFAC-treated sample was calculated for the “no inhibitor” samples and for the “inhibitor” samples using the values after 60 minutes. The fluorescence intensity difference for the “inhibitor” samples was then expressed as fold change of the intensity compared with the ALAFAC alone (“no inhibitor”) sample, providing the degree of depolarization compared to the “ALAFAC alone” sample.

Assay [4] concerns Streptococcus pneumoniae. Kind of assay: Short-time kill assay on planktonic cultures. Format: cell-based. The note with it: D39, 1 hour, staurosporine 20 μM; for Effect of inhibitor on ALAFAC potentiation of gentamicin and penicillin G: Ruthenium Red 30 μM. As to the method: Methodology: In late logarithmic growth phase, the bacteria were harvested by centrifugation at 12,000×g for 10 minutes and resuspended in phosphate-buffered saline (PBS; […], […], […], pH 7.4). Appropriate dilutions of the bacteria were suspended in PBS and treated with indicated concentrations of ALAFAC and/or antibiotics for various times. The effect on bacterial viability was assessed by plating serial dilutions of bacterial sample on tryptic soy agar plates containing 5% sheep blood (viable counts) and determining viable colony forming units after overnight growth at 37° C.
Short-time kill assays. In late logarithmic growth phase, the bacteria were harvested by centrifugation at 12,000×g for 10 minutes and resuspended in phosphate-buffered saline (PBS; 30 mM Na2HPO4, 10 mM KH2PO4, […], pH 7.4). Appropriate concentrations of the bacteria (around 10^8 colony forming units per ml) were suspended in PBS and treated with indicated concentrations of ALAFAC and/or antibiotics for various times. The effect on bacterial viability was assessed by plating serial dilutions of bacterial sample on tryptic soy agar plates containing 5% sheep blood (viable counts) and determining viable CFUs after overnight growth at 37° C.

Assay [5] deals with NRS 384 Staphylococci. The assay is described as follows: Radioisotope 45Ca2+ transport assay. The class given is cell-based, Staphylococcus aureus. The note with it: ALAFAC addition, Ruthenium Red 30 μM. As to the method: Radioisotope ^45Ca^2+ transport assays. Staphylococcus aureus was grown to log phase, washed three times and resuspended in 1×PBS containing 0.5 mM CaCl2 (CaPBS). No glucose was added in order to minimize the interference created by extrusion of Ca^2+ via ATPase pumps. ^45CaCl2 (PerkinElmer; Waltham, Mass., USA) was added to the cells at a final concentration of 2.5 μCi/mL, followed by inhibitor compound, with each addition given two minutes equilibration time. The untreated baseline sample was measured at this point. The sample was then divided, ALAFAC was added to one of the tubes, and ^45Ca^2+ uptake was measured at various intervals. For each sample, 100 μL was dispensed onto Millipore 0.3 μm PHWP filters (EMD Millipore; Billerica, Mass., USA) presoaked in CaPBS, and immediately washed with 9 mL of CaPBS via syringe filtration through Millipore Swinnex® filter holders. Filters were placed in scintillation vials with 5 mL of scintillation fluid, and CPMs were detected on a Wallac 1409 liquid scintillation counter (Wallac Oy, Turku, Finland). The results were expressed as ΔCPM that was calculated for each sample at the indicated time points as the difference between ALAFAC-treated and untreated samples.

Regarding `N=C(N)NC(=O)c1nc(Cl)c(N)nc1N` [Amiloride], the “Transmembrane proton gradient (intracellular pH)” value in assay [1] is recorded as “did not fully inhibit”. Besides, the “Effect of inhibitor on ALAFAC antibiotic potentiation in MIC assay” value in assay [2] was “completely abolished”. Moreover, the “Effect of inhibitor on ALAFAC-associated membrane depolarization” value in assay [3] is listed as “completely abolished”.

As to `N.N.N.N.N.N.N.N.N.N.N.N.N.N.[Cl-].[Cl-].[Cl-].[Cl-].[Cl-].[Cl-].[O-2].[O-2].[Ru+3].[Ru+3].[Ru+4]` [Ruthenium Red], the “Effect of inhibitor on ALAFAC potentiation of gentamicin and penicillin G” value is reported as “completely abolished” in assay [4] and “significantly blocked” in assay [4] (listed as ruthenium red). Moreover, in assay [4] (lethal ALAFAC (12×MIC), ruthenium red 30 μM), the “Effect of inhibitor on ALAFAC-induced death” value is “significantly reduced”. Further, the “Transmembrane proton gradient (intracellular pH)” value in assay [1] was “did not fully inhibit”. Moreover, the “Effect of inhibitor on ALAFAC antibiotic potentiation in MIC assay” value in assay [2] is given as “completely abolished”. Moreover, the “Effect of inhibitor on ALAFAC-associated membrane depolarization” value in assay [3] was “completely abolished”. For the same molecule, in assay [5], the “Intracellular Ca2+ (45Ca2+ uptake)” value is “almost completely blocked”.
